Assay results published in patent publication US4810705A, “Triazolo [3,4-b]pyridazines, process for their preparation and pharmaceutical compositions containing them” (priority 1984, dated 1989).
Where two headings read alike, the source gives them in different places.

Tests used:
[1] = biological target: benzodiazepine receptor; assay: Displacement of tritiated flunitrazepam from the benzodiazepine receptor (synaptic preparations of rat brain); assay type: binding; conditions: tritiated flunitrazepam (60 Ci/mM), 1.1 nM final, read-out: median effective concentration (IC50)
Procedure: ABILITY OF THE DERIVATIVES TO DISPLACE TRITIATED FLUNITRAZEPAM FROM THE BENZODIAZEPINE RECEPTOR
The studies were carried out on synaptic preparations of rat brain in accordance with the method described by Squives and Braestrup (Nature, 1977, 266, pages 732 to 734) and Mohler and Okada (Science, 1977, 198, pages 849 to 851).
The tritiated flunitrazepam (60 Ci/mM) was used at a final concentration of 1.1 nM. The results obtained with various products of the invention are shown in Table III and are expressed as median effective concentration (IC50) in μM.

[2] = Acute oral toxicity in female Charles River CD1 mice; conditions: mouse, in vivo, read-out: % toxicity (percentage of dead animals)
Procedure: Finally, the products of the invention were studied for their toxicity.
The studies were carried out on groups of 5 female Charles River mice of the CD1 strain, weighing between 20 and 24 g. The products were administered orally, diluted in 5% gum arabic. The acute toxicity was recorded during the 72 hours following administration of the product.
The results below (percentage of dead animals) were obtained as a function of the dose administered.

[3] = system: anxiolytic effect of diazepam; assay: Antagonism of anxiolytic effect of diazepam, approach-avoidance conflict test in rats; assay type: in vivo; conditions: 60 min before diazepam 4 mg/kg i.p.
Procedure: The studies were carried out on rats in the approach-avoidance conflict test (L. Cook and A. B. Davidson, Effects of behaviorally active drugs in a conflict-punishment procedure in rats. In: The Benzodiazepines, S. Garattini, E. Mussini and L. O. Randall, editors, Raven Press, New York, 1973, 327-345).
A representative product of the invention, SR 95 195, was administered intraperitoneally 60 minutes before an anxiolytic dose of diazepam (4 mg/kg i.p.). The test was performed 30 minutes after administration of the diazepam.

[4] = system: myorelaxation induced by diazepam; assay: Antagonism of diazepam myorelaxation, traction test in mice; assay type: in vivo; conditions: 15 min before diazepam 3 mg/kg i.p., test 60 min after product; for ED50: Mus musculus, 1 h, read-out: Antagonism of the myorelaxation, 50% effective dose (ED50)
Procedure: (a) Myorelaxant properties.
The studies were carried out by means of the traction test (J. R. Boissier et al., Archives Internationales de Pharmacodynamie, 1961, 135, pages 29-49). This test determines the ability of mice, placed with the front paws on a horizontally stretched wire, to grip with the back paws. The animals which have not brought the back paws onto the wire in less than 5 seconds are considered to be in a state of myorelaxation.
The products are administered 15 minutes before the intraperitoneal injection of a dose of 3 mg/kg of diazepam and the test is performed 60 minutes after administration of the product to be studied. The study was carried out on groups of 10 mice per dose.

[5] = system: food intake; assay: Food intake of fasted rats; assay type: in vivo; conditions: 40 mg/kg orally, first hour
Procedure: Furthermore, the products according to the invention were studied for their ability to reduce the food intake of fasted rats.
The studies were carried out on isolated female rats (200 to 240 g) trained to consume their food during a period of 4 hours per day. On the day of the test, 60 minutes before the food is provided, the animals receive either the product to be studied or the vehicle of administration. The quantity of food ingested during the first hour is determined.
The values shown in the table are the mean values for groups of 6 rats.

`c1ccc(-c2cnn3cnnc3c2)cc1` [SR 95 194, 7-Phenyl-1,2,4-triazolo[4,3-b]pyridazine] showed an IC50 [1] of 0.049 mM, a mortality at 72 h ([2]; 250 mg/kg orally) of 0% and a mortality at 72 h ([2]; 500 mg/kg orally) of 0%. It also gave a mortality at 72 h ([2]; 1000 mg/kg orally) of 100%.

With `Cc1nnc2cc(-c3ccccc3)cnn12` [SR 95 195] the “% antagonism (anxiolytic effect of diazepam)” value (shortened to “% antagonism”) ([3]; 1.25 mg/kg i.p.) was 26%, the “% antagonism” value ([3]; 6.25 mg/kg i.p.) was 74% and the “% antagonism” value ([3]; 25 mg/kg i.p.) was 100%. It also gave an IC50 [1] of 0.009 mM, an ED50 [4] of 26 mg/kg and a mortality at 72 h ([2]; 250 mg/kg orally) of 0%. For the same compound, the mortality at 72 h ([2]; 500 mg/kg orally) was 0%, the mortality at 72 h ([2]; 1000 mg/kg orally) was 80% and the “Food intake” value ([5]; 60 min before food, fasted female rats, mean, groups of 6) was 8.6 ± 1.5 g. For the same compound, the “Food intake, % variation relative to the control animals” value ([5]; p < 0.01, Student's test) was -51%.

`Cc1nnc2cc(Cc3ccccc3)cnn12` [SR 95 252] gave an IC50 [1] of 0.027 mM, a mortality at 72 h ([2]; 250 mg/kg orally) of 0% and a mortality at 72 h ([2]; 500 mg/kg orally) of 0%. For the same compound, the mortality at 72 h ([2]; 1000 mg/kg orally) was 100%.

Compound `COc1ccc(-c2cnn3c(C)nnc3c2)cc1` [SR 95 287, 7-(4-Methoxyphenyl)-3-methyl-1,2,4-triazolo[4,3-b]pyridazine] has a mortality at 72 h ([2]; 250 mg/kg orally) of 0%, a mortality at 72 h ([2]; 500 mg/kg orally) of 0% and a mortality at 72 h ([2]; 1000 mg/kg orally) of 0%.

In the case of `Cc1nnc2cc(-c3ccc(Cl)cc3)cnn12` [SR 95 369], the mortality at 72 h ([2]; 250 mg/kg orally) is reported as 0%, the mortality at 72 h ([2]; 500 mg/kg orally) is reported as 100% and the mortality at 72 h ([2]; 1000 mg/kg orally) is reported as 100%.

Work on `Cc1ccc(-c2cnn3c(C)nnc3c2)cc1` [SR 95 370] yielded a mortality at 72 h ([2]; 250 mg/kg orally) of 40%, a mortality at 72 h ([2]; 500 mg/kg orally) of 100% and a mortality at 72 h ([2]; 1000 mg/kg orally) of 100%.

`Cc1nnc2cc(-c3cccc(Cl)c3)cnn12` [SR 95 398] showed an IC50 [1] of 0.0026 mM, an ED50 [4] of 20 mg/kg and a mortality at 72 h ([2]; 250 mg/kg orally) of 0%. For the same compound, the mortality at 72 h ([2]; 500 mg/kg orally) was 0%.

`Cc1nnc2cc(CCc3ccccc3)cnn12` [SR 95 410] gave a mortality at 72 h ([2]; 250 mg/kg orally) of 0%, a mortality at 72 h ([2]; 500 mg/kg orally) of 0% and a mortality at 72 h ([2]; 1000 mg/kg orally) of 0%.

With `Cc1nnc2cc(-c3ccccc3Cl)cnn12` [SR 95 437] the mortality at 72 h ([2]; 250 mg/kg orally) was 0% and the mortality at 72 h ([2]; 500 mg/kg orally) was 0%.

`c1ccc(Cc2nnc3cc(-c4ccccc4)cnn23)cc1` [SR 95 491, 7-Phenyl-3-benzyl-1,2,4-triazolo[4,3-b]pyridazine] showed an IC50 [1] of 0.0045 mM.

Work on `Clc1ccc(-c2nnc3cc(-c4ccccc4)cnn23)cc1` [SR 95 492] yielded a mortality at 72 h ([2]; 250 mg/kg orally) of 0% and a mortality at 72 h ([2]; 500 mg/kg orally) of 0%.

Work on `c1ccc(-c2cnn3c(-c4ccccc4)nnc3c2)cc1` [SR 95 494] yielded an IC50 [1] of 0.05 mM, a mortality at 72 h ([2]; 250 mg/kg orally) of 0% and a mortality at 72 h ([2]; 500 mg/kg orally) of 0%.

In the case of `Cc1nnc2cc(-c3cccc(C(F)(F)F)c3)cnn12` [SR 95 533], the IC50 [1] is reported as 0.0029 mM and the “Antagonism of the myorelaxation, effect (dose)” value ([4]; at 100 mg/kg) is reported as 100%.
